Source: ChEMBL document CHEMBL1140841, “Synthesis and biological evaluation of trimethyl-substituted cap analogs” (Bioorg Med Chem Lett, 2008)
Active and inactive are the calls of the source. The calls are words filed in the database; no cut-off is given here.

Legend:
[1] = mRNA capping efficiency after 2 hrs by gel shift assay relative to control
HeLa = assay: Translation efficiency in human HeLa cells assessed as luciferase activity; format: functional, cell-based
Escherichia phage T7 = assay: Effect on Enterobacteria phage T7 RNA polymerase RNA transcription after 2 hrs

Row | Activity [1] | Activity (Escherichia phage T7) | Compound | Activity (HeLa)
1 | 61% |  | C[n+]1cn([C@H]2O[C@@H](COP(=O)([O-])OP(=O)(O)OP(=O)(O)OC[C@H]3O[C@@H](n4cnc5c(=O)[nH]c(N)nc54)[C@H](O)[C@@H]3O)[C@H](O)[C@@H]2O)c2nc(N)[nH]c(=O)c21 | 
2 | 51% | Active | CO[C@@H]1[C@H](O)[C@@H](n2c[n+](C)c3c(=O)[nH]c(N)nc32)O[C@H]1COP(=O)([O-])OP(=O)(O)OP(=O)([O-])OC[C@H]1O[C@@H](n2c[n+](C)c3c(=O)[nH]c(N)nc32)[C@H](O)[C@@H]1O | Active
3 | 52% | Active | CO[C@@H]1[C@H](O)[C@@H](n2c[n+](C)c3c(=O)[nH]c(N)nc32)O[C@H]1COP(=O)([O-])OP(=O)(O)OP(=O)(O)OC[C@H]1O[C@@H](n2cnc3c(=O)[nH]c(N)nc32)[C@H](O)[C@@H]1O | Active
4 | 56% | Active | C[n+]1cn([C@@H]2O[C@H](COP(=O)(O)OP(=O)([O-])OP(=O)([O-])OC[C@@H]3O[C@H](n4c[n+](C)c5c(=O)[nH]c(N)nc54)[C@@H](O)[C@H]3O)[C@@H](O)[C@H]2O)c2nc(N)[nH]c(=O)c21 | Active
